According to patent US10179355B2, “Bioremediation enhancing agents and methods of use” (JRW BIOREMEDIATION, LLC, priority 2007, dated 2019):
Values joined by “and” are separate entries in the source; they are usually repeats but may differ in a detail not shown here. Equal values may be shown once.

How the values were obtained:
Assay type in all cases: cell-based, Dehalococcoides and Dehalobacter spp.
[1] = system: dechlorinating bacteria known to convert PCE to ethene; assay: Set F: Additional Novel Bioremediation Amendments, PCE dechlorination microcosms; conditions: 44 days, nominally 1,000 mg/L
Description: (§1) The following components were used in the system for bioremediating contaminated ground water microcosms in Examples 2-8: • 160 milliliter (ml) stoppered serum bottles • 100 ml of anaerobic culture medium, groundwater containing an excess of bioavailable phosphorus and nitrogen at 0.5 mM Phosphate and 1 mM ammonium degassed with a nitrogen sparge • Nominally 1 gram of limestone • 19.54 micromoles (pmoles) Perchloroethene (PCE) • An excess of various electron donors were utilized • 3 ml of inoculum containing dechlorinating bacteria known to convert PCE to ethene.
Set F included microcosms that contained Sodium Gluconate and Sodium Erythorbate. They started at concentrations that were nominally 1,000 mg/L as compared with the sodium lactate control at 7 mM (784 mg/L).
The objective of this set was to characterize the ability of these two novel bioremediation electron donors to completely dechlorinate PCE and characterize the electron donor utilization efficiency as compared with sodium lactate.

[2] = system: dechlorinating bacteria known to convert PCE to ethene; assay: Set E: Relative Efficiency of Novel Bioremediation Amendments (electron donors), PCE dechlorination microcosms
Description: (§2) Sets B, C, D, E, and G further contain figures and tables showing results of the characterization of the Efficiency and the Relative Efficiency of electron donor usage. Efficiency may be defined as the percent of electron donor utilized for dechlorination, and may be calculated by dividing the pmoles of Chloride ion generated by the pmoles of electron donor consumed as measured by either Volatile Fatty Acid (VFA) analysis (Sets B, C, and G) or Chemical Oxygen Demand (COD) analysis (Set D and E). The Relative Efficiency of the electron donor utilization may be defined as the Efficiency of the Electron Donor divided by the Efficiency of the Lactate Control.
as §1
The fifth set tested a variety of different electron donors comparing Crude Glycerin, Sodium Citrate, Ethanol and Whey all charged at nominally 1,000 mg/L to lactate at 7 mM (784 mg/L).
The objective of the study was to test bioremediation amendments for efficacy as electron donors as well as to characterize their Efficiency for dechlorination as compared to the Lactate Control.

[3] = system: dechlorinating bacteria known to convert PCE to ethene; assay: Set G: Additional Yeast Metabolites and Polysaccharides as Nutrients, PCE dechlorination microcosms (kinetics, Relative Rate, paired t-test); conditions: bottles 1-3
Description: Certain contaminated materials (or sites) may contain indigenous microbial communities that are sufficient for complete bioremediation of contaminants. For such sites, there is no need to add microbes unless the indigenous microbes are genetically deficient in achieving the desired clean-up goals. For those sites that are microbiologically limited, microorganisms may be added to the contaminated materials (or sites). In one embodiment, the inoculum may be a mixed culture of halo-respiring bacteria that have been enriched to reach an optimal cell density. These mixed cultures of halo-respiring bacteria may be typically obtained from sediment samples from rivers, streams or any waterways. More specifically, the inoculum used in the Examples was originated from a Sangamon River sediment sample (Lodge Park, Piatt County, Ill.) See, e.g., Brennan, R. A., Sanford, R. A. and Werth, C. J. (2006). “Biodegradation of Tetrachloroethene by Chitin Fermentation Products in a Continuous Flow Column System.” Journal of Environ. Engr., June 665-673. This culture had grown for several years on PCE, anaerobic basal salts medium, Wolfe's vitamin solution and various electron donors including lactate (1-2 millimolar (mM)), formate (4 mM) and chitin using the Volatile Interface Transfer Apparatus (VITA) reactor system at the University of Illinois. Brennan, R. A., and Sanford, R. A. (2002). “Continuous steady-state method using Tenax for delivering tetrachloroethene to chlororespiring bacteria.” Appl. Environ. Microbiol., 68(3), 1464-1467. […] Using 16S rRNA gene-specific primers, both Dehalococcoides and Dehalobacter spp. were detected. Quantitative real-time PCR has been used to determine that approximately 1.65×10^7 Dehalococcoides gene copies were present per ml of culture.
For purpose of this disclosure, each bottle may be started with a certain amount of PCE. At subsequent times each bottle may be sampled for the degradation daughter products of PCE, namely trichloroethene (TCE), cis-dichloroethene (DCE), vinyl chloride (VC) and ethene, etc. Trans-DCE and 1,1-DCE are also daughter products of PCE, but they may not be detectable under the conditions disclosed here.
The rate of degradation may be determined by calculating the number of pmoles of chloride ions removed from PCE and subsequently from the amounts of the daughter products generated. The calculation may be performed as follows: Chloride (μmoles)=[…]−4×PCE (μmoles)−3×TCE (pmoles)−2×DCE (μmoles)−VC (μmoles)
The alternative chloride calculation is: Chloride (μmoles)=TCE (μmoles)+2×DCE (μmoles)+3×VC (μmoles)+4×Ethene (μmoles)
Next, the dechlorination rate may be determined for each bottle at each time by dividing the Chloride generated by the time (days). The data may be then normalized to the lactate control by taking the ratio of Chloride Rate (pmoles/day) and the Lactate Control Chloride Rate (pmoles/day). This ratio is called Relative Rate and is dimensionless.
As shown in the Examples, a paired t-test has been conducted to calculate the probability that the Relative Rate of one group (i.e. with Nutrient) is greater than the other group (i.e. without Nutrient). The null hypothesis is that the underlying means of the two paired groups are equal. The Probability that one group has higher Relative Rates than the other group is shown in various tables in the Examples.
The following components were used in the system for bioremediating contaminated ground water microcosms in Examples 2-8: • 160 milliliter (ml) stoppered serum bottles • 100 ml of anaerobic culture medium, groundwater containing an excess of bioavailable phosphorus and nitrogen at 0.5 mM Phosphate and 1 mM ammonium degassed with a nitrogen sparge • Nominally 1 gram of limestone • 19.54 micromoles (pmoles) Perchloroethene (PCE) • An excess of various electron donors were utilized • 3 ml of inoculum containing dechlorinating bacteria known to convert PCE to ethene. […]

[4] = system: dechlorinating bacteria known to convert PCE to ethene; assay: Set G: Efficiency by VFA Analysis
Description: as §2
The method used to calculate the consumption of the electron donor measured the propionate, acetate and formate levels to calculate the consumption of electron donor over time. The lactate and propionate fermented very rapidly resulting in acetate and formate as the only measurable VFAs.
Set G contained microcosms that tested two different Yeast Metabolites (YM3 and YM4) and a Polysaccharide (PS1) for kinetics and efficiency of electron donor utilization using lactate and molasses as the electron donors. PS1 was also tested as an electron donor by itself.
Lactate at 11.2 mM (1,000 mg/L) and nutrient amendment at 1% of the electron donor levels (˜10 mg/L). Triplicate bottles received 2 micro liters of PCE and 2 ml of inoculum. The bottles were sampled 5 times over a 138 day period.

## O=C1O[C@H]([C@H](O)CO)C([O-])=C1O.[Na+] [Na-Erythorbate, Sodium Erythorbate]
[1]
  Ethene generation (in words): starting to generate Ethene

## O=C([O-])[C@H](O)[C@@H](O)[C@H](O)[C@H](O)CO.[Na+] [Na-Gluconate, Sodium Gluconate]
[1]
  Ethene generation (in words): starting to generate Ethene

## O=C([O-])CC(O)(CC(=O)[O-])C(=O)[O-].[Na+].[Na+].[Na+] [Sodium Citrate]
[2]
  ability to dechlorinate PCE (in words): ability to completely dechlorinate PCE
  dechlorination speed compared to Lactate Control / other amendments (in words): almost as fast
[2]; electron donor nominally 1,000 mg/L vs lactate 7 mM
  efficient as the Lactate Control (Relative Efficiency): 84%

## inulin [PS1]
[3]; time 35 days
  Relative Rate: 0.03 and 0.04 and 0.05
[3]; time 50 days
  Relative Rate: 0.02 and 0.01 (2×)
[3]; time 79 days
  Relative Rate: 0.03 and 0.04 and 0.02
[3]; time 138 days
  Relative Rate: 0.00
[4]; e^- used dechlorination / e^- used donor
  Estimated % Efficiency: 0.283%
[4]; relative to Lactate Control = 100%
  Relative Efficiency: 5%
